# Literature values, collected in US20070212498A1, “Optical film, antireflection film, polarizing plate, display apparatus and method for manufacturing optical film” (FUJIFILM Corporation, priority 2006, published 2007).
# Details: pKa of the conjugate acid, values in an aqueous solution (Kagaku Binran Kiso Hen)
row,pKa,SMILES
1,7.7,"CCC1CNCCO1 (centres unmarked) [b-13, 2-Ethyl morpholine]"
2,7.8,"CC1CNCCO1 (centres unmarked) [b-14, 2-Methyl morpholine]"
